Results reported in publication PMC11004567 (Heliyon, 2024).
Converted amounts (≈) assume the structure as drawn. Like-named read-outs stand apart in the source and are kept apart here.

Experiments:
[1] = tested on: breast cancer MCF-7 cells; settings: through creation of ROS, disruption of mitochondrial membrane potential; cited from earlier work
[2] = tested on: MRSA2, methicillin-resistant S. aureus clinical isolate SA 630; test: In vitro antibacterial evaluation, broth dilution micro-method MIC; format: cell-based; settings: Staphylococcus aureus, MRSA, read-out: MIC MRSA2
[3] = tested on: VRE 725 B, vancomycin-resistant E. faecalis; test: In vitro anti-enterococcal MIC, broth dilution micro-method; format: cell-based, Enterococcus faecalis; settings: 24 h, read-out: MIC VRE 725 B
[4] = tested on: VRE 368, vancomycin-resistant E. faecalis; test: as above; format: cell-based, Enterococcus faecalis; settings: 24 h, read-out: MIC VRE 368
[5] = tested on: Staphylococcus aureus ATCC 29213; test: In vitro antibacterial evaluation, broth dilution micro-method MIC; format: cell-based
[6] = Lipophilicity log k by RP-HPLC; format: physicochemical; settings: logarithm of capacity factor, experimentally determined by RP-HPLC
[7] = tested on: VRE 342B, vancomycin-resistant E. faecalis; test: In vitro anti-enterococcal MIC, broth dilution micro-method; format: cell-based, Enterococcus faecalis; settings: 24 h, read-out: MIC VRE 342B
[8] = tested on: non-cancer human renal proximal tubule epithelial TH-1 cells; settings: read-out: IC50 TH-1; cytotoxicity, non-cancer renal TH-1 cells; cited from earlier work
[9] = tested on: mature S. aureus ATCC 29213 biofilm; test: Biofilm disruption / eradication of mature biofilm; format: cell-based, Staphylococcus aureus
[10] = tested on: S. aureus ATCC 29213; test: Dynamics of antibacterial effect; format: cell-based, Staphylococcus aureus; settings: time-kill curves, 1×, 2× (SB3–Cu also 4×) MIC, up to 24 h
[11] = tested on: MRSA3, methicillin-resistant S. aureus clinical isolate 63718; test: In vitro antibacterial evaluation, broth dilution micro-method MIC; format: cell-based; settings: Staphylococcus aureus, read-out: MIC MRSA3
[12] = tested on: MRSA1, methicillin-resistant S. aureus clinical isolate SA 3202; test: as above; format: cell-based; settings: Staphylococcus aureus, MRSA, read-out: MIC MRSA1
[13] = tested on: E. faecalis ATCC 29213; test: In vitro anti-enterococcal MIC, broth dilution micro-method; format: cell-based; settings: Enterococcus faecalis, ATCC29213, 24 h, read-out: MIC E. faecalis ATCC 29213
[14] = tested on: human monocytic leukemia cell line THP-1; test: In vitro cell viability analysis; format: cell-based; settings: read-out: IC50 THP-1
[15] = tested on: S. aureus ATCC 29213; test: MTT assay, inhibition of respiratory activity; format: cell-based, Staphylococcus aureus; settings: at 16 × MIC
[16] = tested on: M. kansasii DSM 44162; test: In vitro antimycobacterial evaluation, broth dilution micro-method; format: cell-based; settings: Mycobacterium kansasii, DSM44162, read-out: MIC M. kansasii DSM 44162
[17] = ATCC29213, 24 h, read-out: MIC SA

Q: Which results are given for `O=C1c2ccccc2NC(c2cc([N+](=O)[O-])ccc2O)N1/N=C/c1cc([N+](=O)[O-])ccc1O` (stereo not shown) [SB3, 3-[(E)-(2-hydroxy-5-nitrobenzylidene)amino]-2-(2-hydroxy-5-nitrophenyl)-2,3-dihydroquinazolin-4(1H)-one]?
A: Apoptosis of MCF-7 cells [1]: induces apoptosis; MIC ([2]; 24 h): 16 µg/mL; MIC [2]: 35.6 µM; MIC [3]: > 256 µg/mL; MIC [4]: > 256 µg/mL; MIC [5, 17]: 32 µg/mL; MIC ([5]; ATCC29213, read-out: MIC SA): 71.2 µM; log k [6]: 0.6022; MIC [7]: > 256 µg/mL; IC50 [8]: 432 µM; Reduction of biofilm viability ([9]; at 0.5 × MIC): no effect; Eradication activity on mature biofilm ([9]; at 1 × MIC): 81.7 ± 13.7%; Concentration eradicating 80% of S. aureus biofilm ([9]; mature biofilm, 24 h treatment): 1 × MIC; Mode of antibacterial action (bactericidal vs bacteriostatic) [10]: only bacteriostatically; MIC ([11]; 24 h): 64 µg/mL; MIC [11]: 141 µM; MIC ([12]; 24 h): 64 µg/mL; MIC [12]: 141 µM; MIC [13]: 256 µg/mL (≈ 570 µM); IC50 ([14]; Homo sapiens, THP-1, 24 h): 12.7 ± 1.2 µM

Q: Which IC50 ([14]; cell viability, CCK-8, 24 h, ± SD, n = 6) does the source give for `N.N.[Cl][Pt][Cl]` [CPT, cisplatin, reference compound] here?
A: The IC50 was 16.1 ± 1.3 µM.

Q: Which MIC ([2]; 24 h) does the source give for `CC1(C)S[C@@H]2[C@H](NC(=O)[C@H](N)c3ccccc3)C(=O)N2[C@H]1C(=O)O` [AMP, ampicillin, reference compound] here?
A: The MIC was greater than 16 µg/mL.

Q: What about the MIC [2] of the same molecule?
A: The MIC was greater than 45.8 µM.

Q: What about the “S. aureus Respiration Inhibition” value [15] of the same molecule?
A: The value was 81.9%.

Q: And the MIC [3]?
A: The MIC was 4 µg/mL (≈ 11.4 µM).

Q: And the MIC [4]?
A: Its MIC is 4 µg/mL (≈ 11.4 µM).

Q: And the MIC [5, 17]?
A: Its MIC is 2 µg/mL.

Q: And the MIC ([5]; ATCC29213, read-out: MIC SA)?
A: Its MIC is 5.7 µM.

Q: And the MIC [7]?
A: The MIC was 4 µg/mL (≈ 11.4 µM).

Q: And the MIC ([11]; 24 h)?
A: The MIC was 16 µg/mL.

Q: What about the MIC [11] of the same molecule?
A: The MIC was 45.8 µM.

Q: What about the MIC ([12]; 24 h) of the same molecule?
A: The MIC was greater than 16 µg/mL.

Q: And the MIC [12]?
A: The MIC was greater than 45.8 µM.

Q: And the MIC [13]?
A: Its MIC is 1 µg/mL (≈ 2.86 µM).

Q: With `NNC(=O)c1ccncc1` [INH, isoniazid] as the molecule, how does the MIC [16] read?
A: The MIC was 29.1 µM (≈ 3.99 µg/mL).

Q: Which results are given for `COc1cccc(/C=N/N2C(=O)c3ccccc3NC2c2cccc(OC)c2O)c1O` (stereo not shown) [SB8, 3-[(E)-(2-hydroxy-3-methoxybenzylidene)amino]-2-(2-hydroxy-3-methoxyphenyl)-2,3-dihydroquinazolin-4(1H)-one]?
A: MIC ([2]; 24 h): > 256 µg/mL; MIC [3]: > 256 µg/mL; MIC [4]: > 256 µg/mL; MIC [5, 17]: > 256 µg/mL; log k [6]: 0.1689; MIC [7]: > 256 µg/mL; IC50 [8]: > 1000 µM; MIC ([11]; 24 h): > 256 µg/mL; MIC ([12]; 24 h): > 256 µg/mL; MIC [13]: > 256 µg/mL; IC50 ([14]; Homo sapiens, THP-1, 24 h): > 50 µM
